Test results as given in patent publication US20250019410A1, “PROCESS FOR THE PREPARATION OF TIRZEPATIDE OR PHARMACEUTICALLY ACCEPTABLE SALT THEREOF” (Sun Pharmaceutical Industries Ltd., priority 2021, published 2025).

Format: physicochemical
Procedure: The solubility of the salts in water (see Table 3), methanol (see Table 4) and phosphate buffer (see Table 5) were tested.

Compound	Solubility - in Water (descriptive term only)
CC[C@H](C)[C@H](NC(=O)[C@H](CC(C)C)NC(=O)[C@H](Cc1c[nH]c2ccccc12)NC(=O)[C@H](CCC(N)=O)NC(=O)[C@@H](NC(=O)[C@H](Cc1ccccc1)NC(=O)[C@H](C)NC(=O)[C@H](CCCCNC(=O)COCCOCCNC(=O)COCCOCCNC(=O)CC[C@H](NC(=O)CCCCCCCCCCCCCCCCCCC(=O)O)C(=O)O)NC(=O)[C@H](CCC(N)=O)NC(=O)[C@H](C)NC(=O)[C@@H](NC(=O)[C@H](CCCCN)NC(=O)[C@H](CC(=O)O)NC(=O)[C@H](CC(C)C)NC(=O)C(C)(C)NC(=O)[C@@H](NC(=O)[C@H](CO)NC(=O)[C@H](Cc1ccc(O)cc1)NC(=O)[C@H](CC(=O)O)NC(=O)[C@H](CO)NC(=O)[C@@H](NC(=O)[C@H](Cc1ccccc1)NC(=O)[C@@H](NC(=O)CNC(=O)[C@H](CCC(=O)O)NC(=O)C(C)(C)NC(=O)[C@@H](N)Cc1ccc(O)cc1)[C@@H](C)O)[C@@H](C)O)[C@@H](C)CC)[C@@H](C)CC)C(C)C)C(=O)N[C@@H](C)C(=O)NCC(=O)NCC(=O)N1CCC[C@H]1C(=O)N[C@@H](CO)C(=O)N[C@@H](CO)C(=O)NCC(=O)N[C@@H](C)C(=O)N1CCC[C@H]1C(=O)N1CCC[C@H]1C(=O)N1CCC[C@H]1C(=O)N[C@@H](CO)C(N)=O [Acetic acid content - 1.06%]	Practically insoluble in water
CC[C@H](C)[C@H](NC(=O)[C@H](CC(C)C)NC(=O)[C@H](Cc1c[nH]c2ccccc12)NC(=O)[C@H](CCC(N)=O)NC(=O)[C@@H](NC(=O)[C@H](Cc1ccccc1)NC(=O)[C@H](C)NC(=O)[C@H](CCCCNC(=O)COCCOCCNC(=O)COCCOCCNC(=O)CC[C@H](NC(=O)CCCCCCCCCCCCCCCCCCC(=O)O)C(=O)O)NC(=O)[C@H](CCC(N)=O)NC(=O)[C@H](C)NC(=O)[C@@H](NC(=O)[C@H](CCCCN)NC(=O)[C@H](CC(=O)O)NC(=O)[C@H](CC(C)C)NC(=O)C(C)(C)NC(=O)[C@@H](NC(=O)[C@H](CO)NC(=O)[C@H](Cc1ccc(O)cc1)NC(=O)[C@H](CC(=O)O)NC(=O)[C@H](CO)NC(=O)[C@@H](NC(=O)[C@H](Cc1ccccc1)NC(=O)[C@@H](NC(=O)CNC(=O)[C@H](CCC(=O)O)NC(=O)C(C)(C)NC(=O)[C@@H](N)Cc1ccc(O)cc1)[C@@H](C)O)[C@@H](C)O)[C@@H](C)CC)[C@@H](C)CC)C(C)C)C(=O)N[C@@H](C)C(=O)NCC(=O)NCC(=O)N1CCC[C@H]1C(=O)N[C@@H](CO)C(=O)N[C@@H](CO)C(=O)NCC(=O)N[C@@H](C)C(=O)N1CCC[C@H]1C(=O)N1CCC[C@H]1C(=O)N1CCC[C@H]1C(=O)N[C@@H](CO)C(N)=O [Ammonium content- 0.25%]	practically insoluble in water
